Laboratory results from patent US6177438A, “Morphinan derivatives and pharmaceutical use thereof” (priority 1993, dated 2001).
Structures can show the parent of a compound that is named as a salt.

System: acetic acid-induced writhing in ddy mice
Test: animal or person
Format: in vivo, 5 week old ddy mice
Settings: Mus musculus, sc, s.c. 15 minutes before acetic acid, read-out: ED50
Method: 5 week old ddy mice were used in this test. After intraperitoneal administration of 0.1 ml of 0.6% aqueous acetic acid per 10 g of body weight, the number of writhing reactions that occurred in 10 minutes starting 10 minutes after administration was evaluated for the indicator. The test drug was administered subcutaneously into the backs of the animals 15 minutes before administration of acetic acid.

Q: With `CN(C(=O)CCC1CCCC1)[C@H]1CC[C@@]2(O)[C@H]3Cc4ccc(O)c5c4[C@@]2(CCN3CC2CC2)[C@H]1O5` [Compound 48, 17-cyclopropylmethyl-4,5α-epoxy-3,14β-dihydroxy-6α-(N-methyl-3-cyclopentylpropionamido)morphinan.cndot.tartrate] as the compound, how does the ED50 read?
A: 0.019 mg/kg

Q: Which ED50 does the source give for `CN(C(=O)CC1CCCCC1)[C@H]1CC[C@@]2(O)[C@H]3Cc4ccc(O)c5c4[C@@]2(CCN3CC2CC2)[C@H]1O5` [Compound 85] here?
A: 0.113 mg/kg

Q: For `CN(C(=O)Cc1cccc(N)c1)[C@H]1CC[C@@]2(O)[C@H]3Cc4ccc(O)c5c4[C@@]2(CCN3CC2CC2)[C@H]1O5` [Compound 138, 17-Cyclopropylmethyl-3,14β-dihydroxy-4,5α-epoxy-6α-(N-methyl-3-aminophenylacetamido)morphinan.cndot.1.1 tartrate], which ED50 is on record?
A: 0.014 mg/kg

Q: For `CO[C@H](C(=O)N(C)[C@H]1CC[C@@]2(O)[C@H]3Cc4ccc(O)c5c4[C@@]2(CCN3CC2CC2)[C@H]1O5)c1ccccc1` [Compound 31, 17-cyclopropylmethyl-3,14β-dihydroxy-4,5α-epoxy-6α-[(S)-N-methylmethoxyphenylacetamido]morphinan.cndot.hydrochloride], which ED50 is on record?
A: 0.75 mg/kg

Q: Which ED50 does the source give for `COc1ccc2c3c1O[C@H]1[C@@H](N(C)C(=O)Cc4ccc(Cl)c(Cl)c4)CC[C@@]4(O)[C@@H](C2)N(CC2CC2)CC[C@]314` [Compound 142, 17-cyclopropylmethyl-4,5α-epoxy-14β-hydroxy-3-methoxy-6α-(N-methyl-3,4-dichlorophenylacetamido)morphinan.cndot.tartrate] here?
A: 0.78 mg/kg

Q: `CN(C(=O)C#Cc1ccco1)[C@@H]1CC[C@@]2(O)[C@H]3Cc4ccc(O)c5c4[C@@]2(CCN3CC2CC2)[C@H]1O5.Cl` [Compound 175, 17-cyclopropylmethyl-3,14β-dihydroxy-4,5α-epoxy-6β-[N-methyl-3-(2-furyl)propiolamido]morphinan hydrochloride] was tested. Which ED50 did it give?
A: 0.018 mg/kg

Q: How did the ED50 turn out when `CN(C(=O)OCc1ccccc1)[C@H]1CC[C@@]2(O)[C@H]3Cc4cccc5c4[C@@]2(CCN3CC2CC2)[C@H]1O5` [Compound 74, 17-cyclopropylmethyl-14β-hydroxy-4,5α-epoxy-6α-(N-methylbenzyloxycarbamido)morphinan.cndot.phosphate] was run?
A: 0.78 mg/kg

Q: For `CN(C(=O)C#Cc1ccoc1)[C@H]1CC[C@@]2(O)[C@H]3Cc4ccc(O)c5c4[C@@]2(CCN3CC2CC2)[C@H]1O5.O=C(O)C(O)C(O)C(=O)O` [Compound 188, 17-cyclopropylmethyl-3,14β-dihydroxy-4,5α-epoxy-6α-[N-methyl-(3-furyl)propiolamido]morphinan tartrate], which ED50 is on record?
A: 0.002 mg/kg

Q: For `CN(C(=O)/C=C/c1ccccc1C(F)(F)F)[C@@H]1CC[C@@]2(O)[C@H]3Cc4ccc(O)c5c4[C@@]2(CCN3CC2CC2)[C@H]1O5` [Compound 72, 17-cyclopropylmethyl-3,14β-dihydroxy-4,5α-epoxy-6β-(N-methyl-2-trifluoromethylcinnamamido)morphinan.cndot.hydrochloride], which ED50 is on record?
A: 0.18 mg/kg

Q: `CN(C(=O)C#Cc1ccoc1)[C@@H]1CC[C@@]2(O)[C@H]3Cc4ccc(O)c5c4[C@@]2(CCN3CC2CC2)[C@H]1O5.O=C(O)C(O)C(O)C(=O)O` [Compound 177, 17-cyclopropylmethyl-3,14β-dihydroxy-4,5α-epoxy-6β-[N-methyl-(3-furyl)propiolamido]morphinan tartrate] was tested. Which ED50 did it give?
A: 0.0096 mg/kg

Q: `C/C(=C\C(=O)N(C)[C@@H]1CC[C@@]2(O)[C@H]3Cc4ccc(O)c5c4[C@@]2(CCN3CC2CC2)[C@H]1O5)c1ccccc1` [Compound 162, 17-cyclopropylmethyl-3,14β-dihydroxy-4,5α-epoxy-6β-(N-methyl-γ-methylcinnamamido)morphinan tartrate] was tested. Which ED50 did it give?
A: 0.018 mg/kg

Q: `Cc1ccc(/C=C/C(=O)N(C)[C@@H]2CC[C@@]3(O)[C@H]4Cc5ccc(O)c6c5[C@@]3(CCN4CC3CC3)[C@H]2O6)cc1` [Compound 155, 17-cyclopropylmethyl-3,14β-dihydroxy-4,5α-epoxy-6β-(N-methyl-4-methylcinnamamido)morphinan hydrochloride] was tested. Which ED50 did it give?
A: 0.012 mg/kg

Q: For `CC(=O)Oc1ccc2c3c1O[C@H]1[C@@H](N(C)C(=O)Cc4ccc(Cl)c(Cl)c4)CC[C@@]4(O)[C@@H](C2)N(CC2CC2)CC[C@]314` [Compound 139, 17-Cyclopropylmethyl-3-acetoxy-4,5α-epoxy-14β-hydroxy-6α-(N-methyl-3,4-dichlorophenylacetamido)morphinan.cndot.hydrochloride], which ED50 is on record?
A: 0.04 mg/kg

Q: With `Br.CN(C(=O)/C=C/c1cc(Br)cs1)[C@@H]1CC[C@@]2(O)[C@H]3Cc4ccc(O)c5c4[C@@]2(CCN3CC2CC2)[C@H]1O5` (relative stereo) [Compound 157, 17-cyclopropylmethyl-3,14β-dihydroxy-4,5α-epoxy-6β-[N-methyl-trans-3-(4-bromo-2-thienyl)acrylamido]morphinan hydrobromide] as the compound, how does the ED50 read?
A: 0.003 mg/kg

Q: Which ED50 does the source give for `CN(C(=O)Cc1ccccc1)[C@@H]1CC[C@@]2(O)[C@H]3Cc4ccc(O)c5c4[C@@]2(CCN3CC2CC2)[C@H]1O5` [Compound 55, 17-cyclopropylmethyl-3,14β-dihydroxy-4,5α-epoxy-6β-(N-methylphenylacetamido)morphinan.cndot.hydrochloride] here?
A: 0.98 mg/kg

Q: `CC(=O)O[C@@]12CC[C@@H](N(C)C(=O)/C=C/c3ccccc3)[C@@H]3Oc4c(O)ccc5c4[C@@]31CCN(CC1CC1)[C@@H]2C5` [Compound 144, 17-Cyclopropylmethyl-3-hydroxy-14β-acetoxy-4,5α-epoxy-6β-(N-methylcinnamamido)morphinan.cndot.tartrate] was tested. Which ED50 did it give?
A: 0.024 mg/kg

Q: `CCCCN1CC[C@]23c4c5ccc(O)c4O[C@H]2[C@H](N(C)C(=O)/C=C/c2ccoc2)CC[C@@]3(O)[C@H]1C5.O=C(O)C(O)C(O)C(=O)O` (relative stereo) [Compound 163, 17-butyl-3,14β-dihydroxy-4,5α-epoxy-6β-[N-methyl-trans-3-(3-furyl)acrylamido]morphinan tartrate] was tested. Which ED50 did it give?
A: 0.37 mg/kg

Q: For `COCCOC(=O)N(C)[C@@H]1CC[C@@]2(O)[C@H]3Cc4ccc(O)c5c4[C@@]2(CCN3CC2CC2)[C@H]1O5` [Compound 67, 17-cyclopropylmethyl-3,14β-dihydroxy-4,5α-epoxy-6β-(N-methyl-2-methoxyethoxycarbamido)morphinan.cndot.tartrate], which ED50 is on record?
A: 0.36 mg/kg

Q: Which ED50 does the source give for `CN(C(=O)Cc1cccc2sccc12)[C@H]1CC[C@@]2(O)[C@H]3Cc4ccc(O)c5c4[C@@]2(CCN3CC2CC2)[C@H]1O5` [Compound 106, 17-cyclopropylmethyl-3,14β-dihydroxy-4,5α-epoxy-6α-(N-methyl-4-benzo[b]thienylacetamido)morphinan.cndot.hydrochloride] here?
A: 0.25 mg/kg

Same assay, conditions: s.c. 15 minutes before acetic acid

Q: `Cc1ccc(/C=C/C(=O)N(C)[C@@H]2CC[C@@]3(O)[C@H]4Cc5ccc(O)c6c5[C@@]3(CCN4CC3CC3)[C@H]2O6)s1.O=C(O)C(O)C(O)C(=O)O` (relative stereo) [Compound 160, 17-cyclopropylmethyl-3,14β-dihydroxy-4,5α-epoxy-6β-[N-methyl-trans-3-(5-methyl-2-thienyl)acrylamido]morphinan tartrate] was tested. Which ED50 did it give?
A: 0.0027 mg/kg

Q: For `Cc1ccc(C#CC(=O)N(C)[C@@H]2CC[C@@]3(O)[C@H]4Cc5ccc(O)c6c5[C@@]3(CCN4CC3CC3)[C@H]2O6)cc1.Cl` [Compound 171, 17-cyclopropylmethyl-3,14β-dihydroxy-4,5α-epoxy-6β-[N-methyl-3-(4-methylphenyl)propiolamido]morphinan hydrochloride], which ED50 is on record?
A: 0.038 mg/kg
